Measurements from patent publication US20050004005A1, “Methods of treating diseases responsive to Induction of Apoptosis” (priority 2003, published 2005).

Experiments:
caspase cascade [1] = test: Activation of the caspase cascade and induction of apoptosis in cells (earlier Cai et al. applications); assay type: cell-based; details: typically
caspase cascade [2] = details: as described in Ser. No. 10/164,705 and 60/433,953; cited from earlier work
GST-Tip47 = biological target: T1, GST-Tip47 (Homo sapiens, UniProt O60664, I56V/V275A); test: Binding of tritiated compound to GST-Tip47 immobilized on anti-GST Protein A Sepharose, scintillation counting; details: 2 μM compound, 1 hour room temperature, TBS pH 8.0, FIG. 1A
T1 construct: Full-length Tip47 cDNA was cloned into the pGEX-4T-1; made in house; host or cells: E. coli BL-21
T1 sequence (O60664 1-434 I56V/V275A): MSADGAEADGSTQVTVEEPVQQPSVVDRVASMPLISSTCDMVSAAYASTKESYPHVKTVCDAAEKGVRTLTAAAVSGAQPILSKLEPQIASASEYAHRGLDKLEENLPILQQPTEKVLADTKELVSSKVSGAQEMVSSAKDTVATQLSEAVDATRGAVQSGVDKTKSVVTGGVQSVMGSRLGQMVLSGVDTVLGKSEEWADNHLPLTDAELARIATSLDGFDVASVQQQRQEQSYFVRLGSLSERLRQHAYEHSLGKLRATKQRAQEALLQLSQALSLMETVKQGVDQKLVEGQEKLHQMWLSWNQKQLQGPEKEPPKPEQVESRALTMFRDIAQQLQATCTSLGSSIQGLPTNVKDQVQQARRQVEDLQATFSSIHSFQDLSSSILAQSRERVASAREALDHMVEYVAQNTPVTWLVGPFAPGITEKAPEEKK
Experimental: 2 μM 3-(3,5-ditritium-4-azidophenyl)-5-(3-chloro-thiophen-2-yl)-[1,2,4]-oxadiazole (Example 3) was added to either Protein A Sepharose only, Protein A Sepharose plus anti-GST antibody, anti-GST/Protein A Sepharose plus GST only, or anti-GST/Protein A Sepharose plus GST-Tip47. After TBS washes, eluate was counted on a scintillation counter.
Full-length Tip47 cDNA was cloned into the pGEX-4T-1, a glutathione S-transferase (GST) gene fusion system (Amersham, Piscataway, N.J.) using standard methods. Briefly, PCR primers to the 5′ and 3′ region of the gene were designed to contain restriction sites that allowed for the in frame cloning of Tip47 into the pGEX-4T-1 vector. Subsequent to sequence verification, the pGEX-Tip47 construct was transformed into the E.Coli BL-21 strain.
In order to perform binding studies on Tip47, GST-Tip47 was immobilized on Sepharose. To begin, 10 μg of anti-GST antibody (cat. # sc-459, rabbit polyclonal, Santa Cruz Biotechnology, Santa Cruz, Calif.) was incubated with 20 μl of protein A Sepharose (Zymed, South San Francisco, Calif.), in TBS (pH 8.0), total volume 200 μl, for 1 hour at room temperature. Beads were washed 3 times with TBS (pH 8.0). […] Eluates were added to 5 ml of scintillation cocktail and counted using ^3H protocol. […]

Tip47 = biological target: T2, Tip47 (Homo sapiens, UniProt O60664, I56V/V275A); test: Photolabeling of T47D cytosol, immunoprecipitation with anti-Tip47, SDS-PAGE and autoradiography; assay type: binding; details: T47D cytosol labeled with 20 nM compound, UV 254 nm, anti-fibronectin as control, FIG. 1B
T2 construct: This supernatant is T47D cytosol; endogenous in cells; host or cells: T47D breast cancer cells
T2 sequence (O60664 1-434 I56V/V275A): T1 sequence (O60664 1-434 I56V/V275A)
Experimental: T47D cytosol was labeled with 20 nM 3-(3,5-ditritium-4-azidophenyl)-5-(3-chloro-thiophen-2-yl)-[1,2,4]-oxadiazole (Example 3) and immunoprecipitated with anti-fibronectin (as a control) or anti-Tip47. The immunoprecipitated complex was subject to SDS-PAGE and autoradiography.
For immunoprecipitations, T47D cells were first washed in PBS and then resuspended in CLB Buffer (10 mM HEPES, 10 mM NaCl, 1 mM KH2PO4, 5 mM NaHCO3, 1 mM CaCl2, 0.5 mM MgCl2, 5 mM EDTA) plus 0.1% protease inhibitor cocktail (Sigma, St. Louis, Mo.). Cells were allowed to swell in 5 minutes at room temperature and then were homogenized in a tight fitting Dounce homogenizer with 50 strokes. Lysate was spun 2,200×g, 5 minutes, at 4° C. The supernatant was then spun at 100,000×g, 40 minutes at 4° C. This resulting supernatant was called T47D cytosol. Protein concentration determined by the D/C Protein Assay (Bio-Rad, Hercules, Calif.).
20 riM 3-(3,5-ditritium-4-azidophenyl)-5-(3-chloro-thiophen-2-yl)-[1,2,4]-oxadiazole (Example 3) (stock is 20 μM, 1 mCi/ml, 50 Ci/mmol) was added to 1 mg T47D cytosol in 1 ml CLB Buffer and incubated, rocking, for 30 minutes at room temperature. Lysates were then exposed to a Short Wave UV Source (254 nm) for 10 minutes.
Labeled lysates were pre-cleared with 50 μl solution of Protein A Sepharose (Zymed, South San Francisco, Calif.) for 2 hours at 4° C. […]

Tail Interacting Protein = biological target: T3, Tail Interacting Protein (Homo sapiens, UniProt O60664, I56V/V275A); test: Photo-affinity radiolabeling of T47D cytosol, two-dimensional gel and autoradiography; assay type: binding; details: 200 nM compound, 300 μg T47D cytosol, UV 254 nm 10 minutes
T3 construct: This supernatant is T47D cytosol; endogenous in cells; host or cells: T47D breast cancer cells
T3 sequence (O60664 1-434 I56V/V275A): T1 sequence (O60664 1-434 I56V/V275A)
Experimental: Isolation of Tail Interacting Protein from Cell Extracts by Photo-affinity Radiolabeling: T47D breast cancer cell line was grown in RPMI 1640 medium containing 25 mM Hepes and L-glutamine (Gibco) supplemented with 10% FCS and penicillin/streptomycin. 8×10^6 T47D cells in 25 mL medium were plated on a 100 mm dish and grown overnight in RPMI medium supplemented with 10% FCS and penicillin/streptomycin. Cells were scraped with Cell lifter (Fisher) into a conical tube and centrifuged for 5 minutes at 450×g. Cells were washed one time with 1 mL PBS (1,160×g for 3 minutes) and then resuspended in 0.25 mL Cell Lysis Buffer (CLB) (10 mM HEPES, pH 7.2, 10 mM NaCl, 1 mM KH2PO4, 5 mM NaHCO3, 1 mM CaCl2, 0.5 mM MgCl2, 5 mM EDTA) plus 0.1% Protease Inhibitor Cocktail (Sigma). Cells were allowed to swell 5 minutes at room temperature and then homogenized using Dounce homogenizer and Type A pestle (tight) 50 times on ice. After centrifugation at 2,200×g, for 5 minutes, 4° C., the supernatant was spun at 108,000×g, for 40 minutes at 4° C. This supernatant is T47D cytosol. Protein concentration is determined by BioRad DC assay.
300 μg T47D cytosol in 100 μL CLB was added in the well of a 96-well plate. […]

cyclin D1 = test: Realtime PCR of mRNA levels in compound-treated T47D cells; assay type: cell-based; details: 5 μM, 18 h, versus DMSO, FIG. 2
Experimental: FIG. 2: The effect of 5-(3-chlorothiophen-2-yl)-3-(5-chloro-pyridin-2-yl)-[1,2,4]-oxadiazole on mRNA levels of genes of interest. T47D cells were treated for 18 h with 5 μM of 5-(3-chlorothiophen-2-yl)-3-(5-chloro-pyridin-2-yl)-[1,2,4]-oxadiazole or DMSO and total RNA was then isolated. mRNA levels of TGFbeta, p21, cyclin D1, IGF2R, and IGFBP3 were quantitated using realtime PCR as fold change of treatment/control.
For cDNA synthesis and quantitative PCR, total RNA was extracted using the TRIzol reagent (Invitrogen Corporation, Carlsbad, Calif.) according to the manufacturer's instructions. Total RNA was quantitated, denatured, and electrophoresed in an agarose-formaidehyde gei to determine integrity of total RNA. 2 μg of total RNA was then used to make cDNA by reverse transcription using the Retroscript cDNA synthesis kit (Ambion Austin, Tex.) according to the manufacturer's instructions. Quantitative PCR was done by Sybrgreen incorporation using the Quantitect kit (Qiagen, Valencia, Calif.) on the LightCycler (Roche Molecular Biochemicals, Mannheim, Germany) using standard conditions. Data was normalized against the housekeeping gene, cyclophilin. The cells transfected with cyclophilin as a control was normalized against glyceraldehyde phosphate dehydrogenase (GAPD).

SMILES: [N-]=[N+]=Nc1ccc(-c2noc(-c3sccc3Cl)n2)cc1 [3-(4-Azidophenyl)-5-(3-chloro-thiophen-2-yl)-[1,2,4]-oxadiazole]
- Time to induction of apoptosis in cells upon binding to TIPRAIP (caspase cascade [1]): 24 to 48 h
- Activation of the caspase cascade and of apoptosis (caspase cascade [2]): potent and highly efficacious activators of the caspase cascade

SMILES: [3H]c1cc(-c2noc(-c3sccc3Cl)n2)cc([3H])c1N=[N+]=[N-] [Example 3, 3-(3,5 -Ditritium-4-azidophenyl)-5-(3-chloro-thiophen-2-yl)-[1,2,4]-oxadiazole]
- Binding to GST-Tip47 immobilized on α-GST-Protein A-Sepharose (GST-Tip47): binding to GST-Tip47
- Binding to immunoprecipitated Tip47 from cell lysates (Tip47): binding to immunoprecipitated Tip47
- Radiolabeled protein on 2-D gel autoradiography (Tail Interacting Protein): single radiolabeled spot

SMILES: Clc1ccc(-c2noc(-c3sccc3Cl)n2)nc1 [compound A, 5-(3-chlorothiophen-2-yl)-3-(5-chloro-pyridin-2-yl)-[1,2,4]-oxadiazole]
- Gene expression profile: cyclin D1 mRNA level (cyclin D1): down regulation of cyclin D1
